Tests used:
[1] = test system: creatine kinase; test: Creatine kinase assay in Ad5-wt-ER infected HAECT-1 cells; type: cell-based, human; details: for EC50: Homo sapiens, HAECT1, N/O = activity not observed at doses tested, read-out: ER/CK EC50; for ER/CK % Eff*: relative to the maximal stimulation observed with E2; for ER/CK EC50: N/O = activity not observed at doses tested
Procedure: (§1) After four hours, cells were washed with EBM-BSA and incubated overnight in the same medium. […] After two hours, cells were washed and incubated at 34° C. for 1 hour. Cells were then washed, trypsinized, counted and resuspended in 95% FBS/5% dimethylsulfoxide at a concentration of 4×10^6 cells/ml, frozen as 1 or 5 ml aliquots in cryo-vials and stored at −150° C. Control (no ER infection) cells were processed as above without Ad5-wt-hER virus infection. […] Cells were subsequently washed with 300 l of Dulbecco's phosphate buffered saline and lysed in 50 l of Cell Culture Lysis Reagent (Promega). Luciferase was determined on a Wallac Victor^2 Luminometer (Gaithersburg, Md.) using 10 l of lysate and mixing with 100 l of Promega Luciferase Assay reagent. Creatine kinase was determined from the rate of increase in A340 following addition of 100 l of CK assay reagent (Sigma, cat. […] For IC50 and EC50 calculations, mean IL-6, luciferase or CK values versus log10 of the compound concentration were fitted to a four parameter logistic equation. The IC50/EC50 value, ‘Hill slope’, upper and lower limits of the curve were iteratively estimated.

[2] = test system: IL-6; test: IL-6 assay (ELISA) in Ad5-wt-ER infected HAECT-1 cells; type: cell-based, human; details: for ER/IL-6 % Eff: relative to the maximal inhibition observed with E2; for IC50: IL-1 treated
Procedure: as §1

[3] = test system: NF-κB; test: NFκB-luciferase assay in Ad5-wt-ER infected HAECT-1 cells; type: cell-based, human; details: for IC50: IL-1 treated, read-out: ER/NF-KB-luc IC50; for ER/NF-KB-luc % Eff*: relative to the maximal inhibition observed with E2
Procedure: T-175 flasks of 100% confluent HAECT-1 cells (immortalized human aortic endothelial cells) were washed with 8 ml of HBSS (HEPES buffered saline solution) and infected for four hours with 6 ml of a 1:10 dilution of Ad5-wt-hER virus (an adenovirus transfection vector that mediates CMV promoter driven expression of human ER) in phenol red free Endothelial Cell Basal medium (Clonetics, San Diego Calif., Catalog # CC-3129) containing 0.25% bovine serum albumin (EBM-BSA). After four hours, cells were washed with EBM-BSA and incubated overnight in the same medium. Following overnight incubation, cells were washed with EBM-BSA and infected for 2 hours with 6 ml of a 1:10 dilution of Ad5-3×(NF B).Luc virus (Adenovirus luciferase expression vector driven by 3 repeats of the MHC NF b site 5′ to the thymidine kinase promoter) in EBM-BSA. After two hours, cells were washed and incubated at 34° C. for 1 hour. Cells were then washed, trypsinized, counted and resuspended in 95% FBS/5% dimethylsulfoxide at a concentration of 4×10^6 cells/ml, frozen as 1 or 5 ml aliquots in cryo-vials and stored at −150° C. Control (no ER infection) cells were processed as above without Ad5-wt-hER virus infection.
ER infected HAECT-1 cells or control cells were thawed, diluted 42× in warm EBM-BSA, plated into 96-well plates at 0.1 ml/well and incubated for 4 h at 34° C. Test compounds were added to the cells as 2× stocks in EBM-BSA containing 2 ng/ml IL-1 (R&D Systems) and plates were returned to the incubator (34° C.). After 15-20 h, 100 l aliquots of media were removed from the cells and assayed for IL-6 content using a BioSource human IL-6 ELISA Kit. Cells were subsequently washed with 300 l of Dulbecco's phosphate buffered saline and lysed in 50 l of Cell Culture Lysis Reagent (Promega). Luciferase was determined on a Wallac Victor^2 Luminometer (Gaithersburg, Md.) using 10 l of lysate and mixing with 100 l of Promega Luciferase Assay reagent. Creatine kinase was determined from the rate of increase in A340 following addition of 100 l of CK assay reagent (Sigma, cat. No 47-10) to the remainder of the cell lysate.
For IC50 and EC50 calculations, mean IL-6, luciferase or CK values versus log10 of the compound concentration were fitted to a four parameter logistic equation. The IC50/EC50 value, ‘Hill slope’, upper and lower limits of the curve were iteratively estimated.

[4] = Ad5-wt-ER infected HAECT-1 cells
[5] = Homo sapiens, HAECT1, Ad5-wt-ER infected HAECT-1 cells

EC50 [1]	IC50 [2, 5]	melting point	SMILES	ER/CK % Eff* [1]	ER/IL-6 % Eff [2, 4]	IC50 [3]	ER/NF-KB-luc % Eff* [3]	ER/CK EC50 [1]	IC50 [2, 4]
1540 nM	1480 nM		CC1c2ccccc2-c2sc(Br)cc2N1S(=O)(=O)c1ccc(O)c(Br)c1 (stereo not drawn) [Example 12, 2-Bromo-4-[(2-bromo-5-methylthieno[3,2-c]isoquinolin-4(5H)-yl)sulfonyl]phenol]	35%	197%				
		195 to 196 °C	CCC1c2ccccc2-c2sc(-c3ccsc3)cc2N1S(=O)(=O)c1ccc(O)cc1 (stereo not drawn) [Example 10, 4-[(5-Ethyl-2-thien-3-ylthieno[3,2-c]isoquinolin-4(5H)-yl)sulfonyl]phenol]						
47 nM	7.7 nM	183 to 185 °C	CCC1c2ccccc2-c2sc(Br)cc2N1S(=O)(=O)c1ccc(O)cc1 (stereo not drawn) [Example 9, 4-[(2-Bromo-5-ethylthieno[3,2-c]isoquinolin-4(5H)-yl)sulfonyl]phenol]	33%	194%				
	28.2 nM	209 to 211 °C	CC1c2ccccc2-c2sc(Br)cc2N1S(=O)(=O)c1ccc(O)cc1 (stereo not drawn) [Example 6, 4-[(2-Bromo-5-methylthieno[3,2-c]isoquinolin-4(5H)-yl)sulfonyl]phenol]		162%			N/O	
15 nM	24.6 nM		CCC1c2ccccc2-c2sc(-c3ccccc3)cc2N1S(=O)(=O)c1ccc(O)cc1 (stereo not drawn) [Example 11, 4-[(5-Ethyl-2-phenylthieno[3,2-c]isoquinolin-4(5H)-yl)sulfonyl]phenol]	63%	132%				
5.8 nM			C[C@]12CC[C@@H]3c4ccc(O)cc4CC[C@H]3[C@@H]1CC[C@@H]2O [Example E2, 17β-estradiol, reference compound]	100%	100%				1.7 nM

Continued, compound first:

SMILES	EC50 [1]	IC50 [2, 5]	melting point	ER/CK % Eff* [1]	ER/IL-6 % Eff [2, 4]	IC50 [3]	ER/NF-KB-luc % Eff* [3]	ER/CK EC50 [1]	IC50 [2, 4]
C[C@H]1c2ccccc2-c2sc(Br)cc2N1S(=O)(=O)c1ccc(O)cc1 [Example 8, 4-{[(5S)-2-bromo-5-methylthieno[3,2-c]isoquinolin-4-(5H)-yl]sulfonyl}phenol]					164%	19 nM	92%	N/O	8.9 nM
C[C@@H]1c2ccccc2-c2sc(Br)cc2N1S(=O)(=O)c1ccc(O)cc1 [Example 7, 4-{[(5R)-2-bromo-5-methylthieno[3,2-c]isoquinolin-4-(5H)-yl]sulfonyl}phenol]					161%	1450 nM	84%	N/O	5820 nM
CC1c2ccccc2-c2sccc2N1S(=O)(=O)c1ccc(O)cc1 (stereo not drawn) [Example 4, 4-[(5-Methylthieno[3,2-c]isoquinolin-4(5H)-yl)sulfonyl]phenol]	100 nM	66.8 nM	163 to 165 °C	42%	172%				
CCc1cc2c(s1)-c1ccccc1C(CC)N2S(=O)(=O)c1ccc(O)cc1 (stereo not drawn)			119 to 122 °C						
CCC1c2ccccc2-c2sccc2N1S(=O)(=O)c1ccc(O)cc1 (stereo not drawn) [Example 5, 4-[(5-Ethylthieno[3,2-c]isoquinolin-4(5H)-yl)sulfonyl]phenol]		21.3 nM	169 to 171 °C		174%			N/O	

Reference: patent US7696221B2, “Thienoisoquinoline-phenylsulfonamides and their use as ER-NFκB inhibitors” (Wyeth LLC, priority 2004, dated 2010)
